Legend:
[1] = compound: C[C@@H](Oc1cc(-c2cnn(C3CCNCC3)c2)cnc1N)c1c(Cl)ccc(F)c1Cl [Crizotinib]; conditions: max 10 µM
In short: (§1)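 Following 24 hours at 37°C and 5% CO2, cancer cell lines in 1536-well plates with 7.5 μl DMEM/F12 or RPMI and 10% FBS were dosed for 72 hours, final DMSO typically being 0.2%. CellTiter-Glo 2.0 luminescence, scaled between blank-well and DMSO-well means, gave the viability readout. Dose responses were fitted to a two-parameter logistic curve with a non-linear mixed effects model, and the single-agent IC50 was derived from this fit.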

[2] = compound: COc1nnc2ccc(N3CCC(c4ccc(OCCN5CCN(C)C(=O)[C@H]5C)cc4)CC3)nn12 [AZD5153]; conditions: max 1 µM
In short: as §1

[3] = compound: CC(=O)c1c(C)c2cnc(Nc3ccc(N4CCNCC4)cn3)nc2n(C2CCCC2)c1=O [Palbociclib]; conditions: max 10 µM
In short: as §1

[4] = compound: C[C@@H]1COCCN1C2=NC(=NC(=C2)C3(CC3)[S@](=N)(=O)C)C4=C5C=CNC5=NC=C4 [AZD6738]; conditions: max 10 µM
In short: as §1

[5] = compound: Cc1cc2ncnn2cc1Nc1ncc2c(n1)n(C1CCOCC1)c(=O)n2C [AZD7648]; conditions: max 10 µM
In short: as §1

[6] = compound: CN(CC[C@H](CSC1=CC=CC=C1)NC2=C(C=C(C=C2)S(=O)(=O)NC(=O)C3=CC=C(C=C3)N4CCC(CC4)[C@H](C5=CC=CC=C5C6=CC=C(C=C6)Cl)O)S(=O)(=O)C(F)(F)F)CCO [AZD4320]; conditions: max 1 µM
In short: as §1

[7] = compound: COc1cc(Nc2ncc3c(n2)-c2ccc(Cl)cc2C(c2c(F)cccc2OC)=NC3)ccc1C(=O)O [Alisertib]; conditions: max 10 µM
In short: as §1

[8] = compound: CC1(C)CCC(CN2CCN(c3ccc(C(=O)NS(=O)(=O)c4ccc(NCC5CCOCC5)c([N+](=O)[O-])c4)c(Oc4cnc5[nH]ccc5c4)c3)CC2)=C(c2ccc(Cl)cc2)C1 [Venetoclax]; conditions: max 1 µM
In short: as §1

[9] = compound: CN(C)CCCOc1ccc(-c2ccc3ncc4c(c3c2)n(C2CCOCC2)c(=O)n4C)cn1 [AZD0156]; conditions: max 3 µM
In short: as §1

[10] = compound: O=C(Nc1ccc2[nH]nc(-c3ccncc3)c2c1)[C@@H]1CCN(CC(=O)N2CCN(c3ccc(-c4ncccn4)cc3)CC2)C1; conditions: max 5 µM
In short: as §1

[11] = compound: COc1cccc2c1C(=O)c1c(O)c3c(c(O)c1C2=O)C[C@@](O)(C(=O)CO)C[C@@H]3O[C@H]1C[C@H](N)[C@H](O)[C@H](C)O1 [Doxorubicin]; conditions: max 1 µM
In short: as §1

[12] = compound: C1CN(CCC1(C(=O)N[C@@H](CCO)C2=CC=C(C=C2)Cl)N)C3=NC=NC4=C3C=CN4 [AZD5363]; conditions: max 10 µM
In short: as §1

[13] = compound: Cc1nc(-c2cn3c(n2)-c2ccc(-c4cnn(C(C)(C)C(N)=O)c4)cc2OCC3)n(C(C)C)n1 [Taselisib]; conditions: max 10 µM
In short: as §1

[14] = compound: CC(=O)Nc1cccc(-n2c(=O)n(C3CC3)c(=O)c3c(Nc4ccc(I)cc4F)n(C)c(=O)c(C)c32)c1 [Trametinib]; conditions: max 1 µM
In short: as §1

[15] = compound: CCc1c2c(nc3ccc(O)cc13)-c1cc3c(c(=O)n1C2)COC(=O)[C@]3(O)CC [SN-38]; conditions: max 0.3 µM
In short: as §1

[16] = compound: C[C@@H](c1ccc2nccn2c1)n1nnc2ncc(-c3cnn(C)c3)nc21 [Savolitinib]; conditions: max 1 µM
In short: as §1

[17] = compound: CCN(CCO)CCCOc1ccc2c(Nc3cc(CC(=O)Nc4cccc(F)c4)[nH]n3)ncnc2c1 [AZD2811]; conditions: max 1 µM
In short: as §1

[18] = compound: N#Cc1cnc(Nc2cc(NC[C@H]3CNCCO3)c(C(F)(F)F)cn2)cn1 [SRA737]; conditions: max 10 µM
In short: as §1

[19] = compound: NC1(c2ccc(-c3nc4ccn5c(=O)[nH]nc5c4cc3-c3ccccc3)cc2)CCC1 [MK-2206]; conditions: max 10 µM
In short: as §1

[20] = compound: Nc1ccn([C@@H]2O[C@H](CO)[C@@H](O)C2(F)F)c(=O)n1 [Gemcitabine]; conditions: max 0.3 µM
In short: as §1

[21] = compound: CC1=CN2[C@@H](C1)C=NC3=CC(=C(C=C3C2=O)OC)OCCCCCOC4=C(C=C5C(=C4)N=C[C@@H]6CC(=CN6C5=O)C)OC [SG3199]; conditions: max 0.001 µM
In short: as §1

[22] = compound: CC(C)n1c(=O)n(C)c2cnc3cc(F)c(-c4ccc(OCCCN5CCCCC5)nc4)cc3c21 [AZD1390]; conditions: max 0.3 µM
In short: as §1

[23] = compound: Cc1c2c(nn1C)CSCc1cc(n(C)n1)CSc1cc(c3ccccc3c1)OCCCc1c(C(=O)O)n(C)c3c-2c(Cl)ccc13 [AZD5991]; conditions: max 1 µM
In short: as §1

[24] = compound: COc1cc2ncnc(Nc3ccc(F)c(Cl)c3)c2cc1OCCCN1CCOCC1 [Gefitinib]; conditions: max 10 µM
In short: as §1

[25] = compound: C=CCn1c(=O)c2cnc(Nc3ccc(N4CCN(C)CC4)cc3)nc2n1-c1cccc(C(C)(C)O)n1 [AZD1775]; conditions: max 3 µM
In short: as §1

[26] = compound: O=C(c1cc(Cc2n[nH]c(=O)c3ccccc23)ccc1F)N1CCN(C(=O)C2CC2)CC1 [Olaparib]; conditions: max 10 µM
In short: as §1

[27] = compound: COc1cccc(OCCCN)c1-c1cc(Nc2cnc(C#N)cn2)n[nH]1 [Prexasertib]; conditions: max 1 µM
In short: as §1

[28] = compound: C[C@@H](Nc1cc(F)cc(F)c1)c1cc(C(=O)N(C)C)cc2c(=O)cc(N3CCOCC3)oc12 [AZD8186]; conditions: max 10 µM
In short: as §1

[29] = compound: Cn1cnc2c(F)c(Nc3ccc(Br)cc3Cl)c(C(=O)NOCCO)cc21 [Selumetinib]; conditions: max 10 µM
In short: as §1

[30] = compound: CC1=C(C(=CC=C1)Cl)NC(=O)C2=CN=C(S2)NC3=CC(=NC(=N3)C)N4CCN(CC4)CCO [Dasatinib]; conditions: max 2 µM
In short: as §1

[31] = compound: CC(=O)O[C@H]1C(=O)[C@@]2(C)[C@H]([C@H](OC(=O)c3ccccc3)[C@]3(O)C[C@H](OC(=O)[C@H](O)[C@@H](NC(=O)c4ccccc4)c4ccccc4)C(C)=C1C3(C)C)[C@]1(OC(C)=O)CO[C@@H]1C[C@@H]2O [Paclitaxel]; conditions: max 3 µM
In short: as §1

[32] = compound: C1CC(C1)(C(=O)[O-])C(=O)[O-].N.N.[Pt+2] [Carboplatin]; conditions: max 10 µM
In short: as §1

[33] = compound: CS(=O)(=O)CCNCc1ccc(-c2ccc3ncnc(Nc4ccc(OCc5cccc(F)c5)c(Cl)c4)c3c2)o1 [Lapatinib]; conditions: max 10 µM
In short: as §1

[34] = compound: COc1cc([C@@H]2c3cc4c(cc3[C@@H](O[C@@H]3O[C@@H]5CO[C@@H](C)O[C@H]5[C@H](O)[C@H]3O)[C@H]3COC(=O)[C@H]23)OCO4)cc(OC)c1O [Etoposide]; conditions: max 10 µM
In short: as §1

[35] = compound: O=c1[nH]cc(F)c(=O)[nH]1 [5-Fluorouracil]; conditions: max 20 µM
In short: as §1

In the case of D-283MED (Other Solid Carcinomas), the “IC50, cell viability 72 h” value [1] was 2730 nM, the “IC50, cell viability 72 h” value [2] was 60.8 nM and the “IC50, cell viability 72 h” value [3] was > 10000 nM. For the same cell line, the “IC50, cell viability 72 h” value [4] was 302 nM, the “IC50, cell viability 72 h” value [5] was > 10000 nM and the “IC50, cell viability 72 h” value [6] was 425 nM. For the same cell line, the “IC50, cell viability 72 h” value [7] was 547 nM, the “IC50, cell viability 72 h” value [8] was > 1000 nM and the “IC50, cell viability 72 h” value [9] was > 3000 nM. The “IC50, cell viability 72 h” value [10] was > 5000 nM, the “IC50, cell viability 72 h” value [11] was 200 nM and the “IC50, cell viability 72 h” value [12] was 8850 nM. The “IC50, cell viability 72 h” value [13] was 3990 nM, the “IC50, cell viability 72 h” value [14] was > 1000 nM and the “IC50, cell viability 72 h” value [15] was 7.3 nM. For the same cell line, the “IC50, cell viability 72 h” value [16] was > 1000 nM, the “IC50, cell viability 72 h” value [17] was 450 nM and the “IC50, cell viability 72 h” value [18] was 869 nM. The “IC50, cell viability 72 h” value [19] was > 10000 nM, the “IC50, cell viability 72 h” value [20] was 3.45 nM and the “IC50, cell viability 72 h” value [21] was > 1 nM. For the same cell line, the “IC50, cell viability 72 h” value [22] was > 300 nM, the “IC50, cell viability 72 h” value [23] was > 1000 nM and the “IC50, cell viability 72 h” value [24] was > 10000 nM. The “IC50, cell viability 72 h” value [25] was 425 nM, the “IC50, cell viability 72 h” value [26] was > 10000 nM and the “IC50, cell viability 72 h” value [27] was 11 nM. The “IC50, cell viability 72 h” value [28] was 8400 nM, the “IC50, cell viability 72 h” value [29] was > 10000 nM and the “IC50, cell viability 72 h” value [30] was > 2000 nM. The “IC50, cell viability 72 h” value [31] was < 3 nM, the “IC50, cell viability 72 h” value [32] was > 10000 nM and the “IC50, cell viability 72 h” value [33] was 6250 nM. The “IC50, cell viability 72 h” value [34] was 583 nM and the “IC50, cell viability 72 h” value [35] was 7430 nM.

Source: the supplement of paper PMC11061612
